Reference: patent US10202361B2, “Pyridazinones as herbicides” (E I DU PONT DE NEMOURS AND COMPANY, priority 2014, dated 2019)
Where two headings read alike, the source gives them in different places.

Assays:
Type in all cases: in vivo
[1] = test system: foxtail, giant (giant foxtail, Setaria faberii); assay: Test A pre-/postemergence greenhouse herbicide test; conditions: Setaria faberi, 240 h, 0 to 100 scale (0 no effect, 100 complete control), approx. 10 d, read-out: Plant response rating, Foxtail, Giant; for pest or weed control at 125 g/ha: 125 g ai/ha; for pest or weed control at 500 g/ha: 500 g ai/ha
Summary of the method: (§1)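 Injury was scored visually on a 0–100 scale (100 = complete control) about 10 d after spraying, relative to untreated plants. Compounds were formulated in solvent plus surfactant and applied as soil spray preemergence or to 2–10 cm, one- to two-leaf seedlings postemergence.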

[2] = test system: barnyardgrass (Echinochloa crus-galli); assay: as above; conditions: Echinochloa crus-galli, 240 h, 0 to 100 scale (0 no effect, 100 complete control), approx. 10 d, read-out: Plant response rating, Barnyardgrass; for pest or weed control at 125 g/ha: 125 g ai/ha; for pest or weed control at 500 g/ha: 500 g ai/ha
Summary of the method: as §1

[3] = test system: pigweed (Amaranthus retroflexus); assay: as above; conditions: Amaranthus retroflexus, 240 h, 0 to 100 scale (0 no effect, 100 complete control), approx. 10 d, read-out: Plant response rating, Pigweed; for pest or weed control at 125 g/ha: 125 g ai/ha; for pest or weed control at 500 g/ha: 500 g ai/ha
Summary of the method: as §1

[4] = test system: velvetleaf (Abutilon theophrasti); assay: as above; conditions: Abutilon theophrasti, 240 h, 0 to 100 scale (0 no effect, 100 complete control), approx. 10 d, read-out: Plant response rating, Velvetleaf; for pest or weed control at 125 g/ha: 125 g ai/ha; for pest or weed control at 500 g/ha: 500 g ai/ha
Summary of the method: as §1

[5] = test system: wheat (Triticum aestivum); assay: as above; conditions: Triticum aestivum, 240 h, 0 to 100 scale (0 no effect, 100 complete control), approx. 10 d, read-out: Plant response rating, Wheat; for plant injury at 125 g/ha: 125 g ai/ha; for plant injury at 500 g/ha: 500 g ai/ha
Summary of the method: as §1

[6] = test system: corn (Zea mays); assay: as above; conditions: Zea mays, 240 h, 0 to 100 scale (0 no effect, 100 complete control), approx. 10 d; for Corn plant response rating (crop injury, 0 = no effect, 100 = complete kill) at 125 g/ha: 125 g ai/ha; for Corn plant response rating (crop injury, 0 = no effect, 100 = complete kill) at 500 g/ha: 500 g ai/ha
Summary of the method: as §1

[7] = test system: morningglory (Ipomoea spp.); assay: as above; conditions: Ipomoea, 240 h, 0 to 100 scale (0 no effect, 100 complete control), approx. 10 d, read-out: Plant response rating, Morningglory; for pest or weed control at 125 g/ha: 125 g ai/ha; for pest or weed control at 500 g/ha: 500 g ai/ha
Summary of the method: as §1

[8] = test system: crabgrass, Large (large crabgrass, Digitaria sanguinalis); assay: as above; conditions: Digitaria sanguinalis, 240 h, 0 to 100 scale (0 no effect, 100 complete control), approx. 10 d, read-out: Plant response rating, Crabgrass, Large; for pest or weed control at 125 g/ha: 125 g ai/ha; for pest or weed control at 500 g/ha: 500 g ai/ha
Summary of the method: as §1

[9] = test system: barnyardgrass (Echinochloa crus-galli); assay: Test C pre-/postemergence greenhouse herbicide test; conditions: Barnyardgrass, Preemergence
Description: Seeds of plant species selected from blackgrass (Alopecurus myosuroides), bromegrass, downy (downy bromegrass, Bromus tectorum), foxtail, green (green foxtail, Setaria viridis), ryegrass, Italian (Italian ryegrass, Lolium multiflorum), wheat (winter wheat, Triticum aestivum), oat, wild (wild oat, Avena fatua), galium (catchweed bedstraw, Galium aparine), bermudagrass (Cynodon dactylon), surinam grass (Brachiaria decumbens), cocklebur (common cocklebur, Xanthium strumarium), corn (Zea mays), crabgrass, large (large crabgrass, Digitaria sanguinalis), cupgrass, woolly (woolly cupgrass, Eriochloa villosa), foxtail, giant (giant foxtail, Setaria faberii), goosegrass (Eleusine indica), johnsongrass (Sorghum halepense), kochia (Kochia scoparia), lambsquarters (Chenopodium album), morningglory (Ipomoea coccinea), nightshade (eastern black nightshade, Solanum ptycanthum), nutsedge, yellow (yellow nutsedge, Cyperus esculentus), pigweed (Amaranthus retroflexus), ragweed (common ragweed, Ambrosia elatior), soybean (Glycine max), sunflower (common oilseed sunflower, Helianthus annuus), Russian thistle (Salsola kali), barnyardgrass (Echinochloa crus-galli), oilseed rape (Brassica napus), waterhemp (common waterhemp, Amaranthus rudis), and velvetleaf (Abutilon theophrasti) were planted into a blend of loam soil and sand and treated preemergence with test chemicals formulated in a non-phytotoxic solvent mixture which included a surfactant.
At the same time, plants selected from these crop and weed species and also barley (winter barley, Hordeum vulgare), canarygrass (Phalaris minor), windgrass (Apera spica-venti), deadnettle (henbit deadnettle, Lamium amplexicaule), and chickweed (common chickweed, Stellaria media) were planted in pots containing Redi-Earth® planting medium (Scotts Company, 14111 Scottslawn Road, Marysville, Ohio 43041) comprising spaghnum peat moss, vermiculite, wetting agent and starter nutrients and treated with postemergence applications of test chemicals formulated in the same manner. Plants ranged in height from 2 to 18 cm (1- to 4-leaf stage) for postemergence treatments. Treated plants and controls were maintained in a greenhouse for 13 to 15 d, after which time all species were compared to controls and visually evaluated. Plant response ratings, summarized in Table C, are based on a scale of 0 to 100 where 0 is no effect and 100 is complete control. A dash (-) response means no test result.

Structure (SMILES): CCOc1cc(=O)n(-c2ccc(F)cc2)nc1Cc1ccnc(C(F)(F)F)c1 [Compound 25, 5-ethoxy-2-(4-fluorophenyl)-6-[[2-(trifluoromethyl)-4-pyridinyl]methyl]-3 (2H)-pyridazinone]
- pest or weed control at 125 g/ha ([1]; post-emergence, Postemergence): 70%
- pest or weed control at 500 g/ha ([1]; post-emergence, Postemergence): 90%
- pest or weed control at 125 g/ha ([1]; pre-emergence, Preemergence): 100%
- pest or weed control at 500 g/ha ([1]; pre-emergence, Preemergence): 100%
- pest or weed control at 125 g/ha ([2]; post-emergence, Postemergence): 80%
- pest or weed control at 500 g/ha ([2]; post-emergence, Postemergence): 90%
- pest or weed control at 125 g/ha ([2]; pre-emergence, Preemergence): 90%
- pest or weed control at 500 g/ha ([2]; pre-emergence, Preemergence): 100%
- pest or weed control at 125 g/ha ([3]; post-emergence, Postemergence): 100%
- pest or weed control at 500 g/ha ([3]; post-emergence, Postemergence): 100%
- pest or weed control at 125 g/ha ([3]; pre-emergence, Preemergence): 100%
- pest or weed control at 500 g/ha ([3]; pre-emergence, Preemergence): 100%
- pest or weed control at 125 g/ha ([4]; post-emergence, Postemergence): 60%
- pest or weed control at 500 g/ha ([4]; post-emergence, Postemergence): 100%
- pest or weed control at 125 g/ha ([4]; pre-emergence, Preemergence): 40%
- pest or weed control at 500 g/ha ([4]; pre-emergence, Preemergence): 100%
- plant injury at 125 g/ha ([5]; post-emergence, Postemergence): 60%
- plant injury at 500 g/ha ([5]; post-emergence, Postemergence): 70%
- plant injury at 125 g/ha ([5]; pre-emergence, Preemergence): 30%
- plant injury at 500 g/ha ([5]; pre-emergence, Preemergence): 60%
- Corn plant response rating (crop injury, 0 = no effect, 100 = complete kill) at 125 g/ha ([6]; post-emergence, Postemergence): 70%
- Corn plant response rating (crop injury, 0 = no effect, 100 = complete kill) at 500 g/ha ([6]; post-emergence, Postemergence): 80%
- Corn plant response rating (crop injury, 0 = no effect, 100 = complete kill) at 125 g/ha ([6]; pre-emergence, Preemergence): 50%
- Corn plant response rating (crop injury, 0 = no effect, 100 = complete kill) at 500 g/ha ([6]; pre-emergence, Preemergence): 50%
- pest or weed control at 125 g/ha ([7]; post-emergence, Postemergence): 40%
- pest or weed control at 500 g/ha ([7]; post-emergence, Postemergence): 90%
- pest or weed control at 125 g/ha ([7]; pre-emergence, Preemergence): 30%
- pest or weed control at 500 g/ha ([7]; pre-emergence, Preemergence): 90%
- pest or weed control at 125 g/ha ([8]; post-emergence, Postemergence): 80%
- pest or weed control at 500 g/ha ([8]; post-emergence, Postemergence): 90%
- pest or weed control at 125 g/ha ([8]; pre-emergence, Preemergence): 100%
- pest or weed control at 500 g/ha ([8]; pre-emergence, Preemergence): 100%
- Plant response rating ([9]; 31 g ai/ha): 35
- Plant response rating ([9]; 62 g ai/ha): 85
- Plant response rating ([9]; 125 g ai/ha): 95
- Plant response rating ([9]; 250 g ai/ha): 98
